From patent publication US4900725A, “Steroids including a spiro ring in position 17, the process for their preparation and their use” (Roussel Uclaf, priority 1986, dated 1990)

Experiments:
[1] = target: T1, Glucocorticoid receptor of the rat thymus (Rattus norvegicus, UniProt P06536); test: Glucocorticoid receptor of the rat thymus, relative bonding affinity (RBA); format: binding, rat (Sprague-Dawley); conditions: for Relative bonding affinity (RBA), Glucocorticoid, 4 H: incubation 4 H at 0° C.; for Relative bonding affinity (RBA), Glucocorticoid, 4 H / Relative bonding affinity (RBA), Glucocorticoid, 24 H: versus cold dexamethasone, tritiated dexamethasone; for Relative bonding affinity (RBA), Glucocorticoid, 24 H: incubation 24 H at 0° C.
T1 construct: the thymus is removed and homogenized at 0° C. in a buffer; from tissue; host or cells: thymus of adrenalectomized male Sprague-Dawley rats, 105,000 g supernatant (cytosol)
T1 sequence (P06536 1-795): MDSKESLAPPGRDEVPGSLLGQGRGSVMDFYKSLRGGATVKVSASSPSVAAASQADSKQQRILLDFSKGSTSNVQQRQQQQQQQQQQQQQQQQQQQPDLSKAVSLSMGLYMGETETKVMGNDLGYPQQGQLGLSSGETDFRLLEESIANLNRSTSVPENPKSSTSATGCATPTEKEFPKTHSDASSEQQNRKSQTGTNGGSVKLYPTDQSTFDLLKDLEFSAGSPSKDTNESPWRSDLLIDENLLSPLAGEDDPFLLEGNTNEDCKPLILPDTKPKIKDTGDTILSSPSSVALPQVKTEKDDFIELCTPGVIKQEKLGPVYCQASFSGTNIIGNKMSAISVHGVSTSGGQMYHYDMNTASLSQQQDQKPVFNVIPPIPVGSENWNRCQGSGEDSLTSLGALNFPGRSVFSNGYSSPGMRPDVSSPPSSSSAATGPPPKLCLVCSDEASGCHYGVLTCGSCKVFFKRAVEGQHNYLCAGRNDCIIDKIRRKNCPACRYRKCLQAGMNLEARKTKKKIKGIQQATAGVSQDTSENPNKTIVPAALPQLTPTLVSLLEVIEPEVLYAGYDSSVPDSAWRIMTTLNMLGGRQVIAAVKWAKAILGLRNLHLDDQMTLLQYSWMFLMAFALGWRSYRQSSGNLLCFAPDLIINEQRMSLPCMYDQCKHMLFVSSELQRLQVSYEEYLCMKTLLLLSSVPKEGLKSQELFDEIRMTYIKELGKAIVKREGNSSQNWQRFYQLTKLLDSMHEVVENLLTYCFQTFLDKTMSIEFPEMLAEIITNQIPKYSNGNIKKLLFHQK
Method: Glucocorticoid receptor of the rat thymus
Male Sprague-Dawley EOPS rats, weighing 160 to 200 g are suprerenalectomized. 4 to 8 days after this ablation, the animals are killed, and the thymus is removed and homogenized at 0° C. in a buffer, Tris 10 mM, saccharose 0.25M, dithiothreitol 2 mM, HCl pH 7.4, using a Potter polytetrafluoroethylene-glass (1 g of tissue for 10 ml of TS). The homogenate is then ultra-centrifuged (105,000 g×90 min.) at 0° C. Aliquots of the supernatant so obtained are incubated at 0° C. for a time (t) with a constant concentration (T) of tritiated dexamethasone in the presence of increasing concentrations (0-2,500.10^-9 M) either of cold dexamethasone, or of the cold product under test. The concentration of bonded tritiated dexamethasone (B) is then measured in each incubate by the technique of adsorption on carbon dextran.
(§1) Calculation of the relative bonding affinity
(§2) The calculation of the relative bonding affinity (RBA) is the same for all the receptors.
(§3) The two following curves are drawn: the percentage of bonded tritiated hormone B/T as a function of the concentration of the cold reference hormone, and B/T as a function of the logarithm of the concentration of the cold product under test. The straight line of the equation [formula] is determined. B/T max=percentage of tritiated hormone bonded for an incubation of this tritiated hormone at the concentration (T). B/T min=percentage of tritiated hormone bonded for an incubation of this tritiated hormone at the concentration (T) in the presence of a great excess of cold hormone (2,500.10^-9 M).
(§4) The intersections of the straight line I50 with the curves enables the concentrations of the cold reference hormone (CH) and of the cold product under test (CX) to be evaluated which inhibit by 50% the bonding of the tritiated hormone on the receptor.
(§5) The relative bonding affinity (RBA) of the product under test is determined by the equation: [formula]

[2] = target: T2, Progestogene receptor of rabbit uterus (Oryctolagus cuniculus, UniProt P06186); test: Progestogene receptor of rabbit uterus, relative bonding affinity (RBA); format: binding; conditions: for Relative bonding affinity (RBA), Progestogen, 2 H: incubation 2 H at 0° C.; for Relative bonding affinity (RBA), Progestogen, 2 H / Relative bonding affinity (RBA), Progestogen, 24 H: versus cold reference hormone, tritiated R; for Relative bonding affinity (RBA), Progestogen, 24 H: incubation 24 H at 0° C.
T2 construct: the uterus is removed, weighed and homogenized at 0° C; from tissue; host or cells: uterus of estradiol-treated impuberal rabbits, 105,000 g supernatant (cytosol)
T2 sequence (P06186 1-930): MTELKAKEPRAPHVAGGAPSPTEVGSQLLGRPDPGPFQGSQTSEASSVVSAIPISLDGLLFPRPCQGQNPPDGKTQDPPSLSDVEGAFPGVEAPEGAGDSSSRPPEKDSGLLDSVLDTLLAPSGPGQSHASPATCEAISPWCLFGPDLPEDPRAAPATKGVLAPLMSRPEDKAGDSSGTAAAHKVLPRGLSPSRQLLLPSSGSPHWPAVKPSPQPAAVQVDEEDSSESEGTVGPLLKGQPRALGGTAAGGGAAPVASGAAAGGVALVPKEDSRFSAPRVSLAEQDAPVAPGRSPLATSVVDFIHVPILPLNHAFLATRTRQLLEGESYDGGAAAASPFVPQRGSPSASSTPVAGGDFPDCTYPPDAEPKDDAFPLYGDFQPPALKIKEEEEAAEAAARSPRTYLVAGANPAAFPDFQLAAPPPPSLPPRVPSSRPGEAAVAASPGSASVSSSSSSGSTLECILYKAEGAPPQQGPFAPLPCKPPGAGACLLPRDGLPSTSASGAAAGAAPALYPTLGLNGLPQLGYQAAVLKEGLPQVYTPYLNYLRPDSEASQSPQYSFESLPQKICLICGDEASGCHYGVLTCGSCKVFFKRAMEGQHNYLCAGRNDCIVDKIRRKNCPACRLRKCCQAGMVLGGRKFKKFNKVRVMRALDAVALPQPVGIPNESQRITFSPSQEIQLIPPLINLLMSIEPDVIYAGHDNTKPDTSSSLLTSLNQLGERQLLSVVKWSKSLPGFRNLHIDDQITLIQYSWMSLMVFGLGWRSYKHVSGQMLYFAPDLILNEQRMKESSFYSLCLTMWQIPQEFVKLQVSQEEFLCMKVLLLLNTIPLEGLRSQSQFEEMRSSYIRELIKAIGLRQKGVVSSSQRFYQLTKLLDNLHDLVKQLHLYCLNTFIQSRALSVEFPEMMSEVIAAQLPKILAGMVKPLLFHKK
Method: Progestogene receptor of rabbit uterus
Impuberal rabbits weighing about 1 kg receive a cutaneous application of […] of estradiol. 5 days after this treatment, the animals are killed, the uterus is removed, weighed and homogenized at 0° C., using a Potter teflon-glass, in a buffered solution TS (tirs 10 mM, saccharose 0.25 M, HCl pH 7.4) (1 g of tissue for 50 ml of TS). The homogenate is then ultra-centrifuged (105,000 g×90 min.) at 0° C.
Aliquots of the supernatant so obtained are incubated at 0° C. for a time t, with a constant concentration (T) of tritiated product R (17,21-dimethyl-19-nor-4,9-pregnadiene-3,20-dione) in the presence of increasing concentrations (0-2500.10^-9 M either of R cold, or of cold progesterone, or of the cold product under test. The concentration (B) of bonded triated (R) is then measured in each incubate by the technique of adsorption on carbon dextran.
as §1, §2, §3, §4, §5

[3] = test system: thymocytes of suprarenalectomized rats; test: Antiglucocorticoid activity: inhibition of the effect of dexamethasone on tritiated uridine incorporation in thymocytes; format: cell-based; conditions: Rattus norvegicus, Thymocyte, 5.10^-8 M dexamethasone, 37° C., 30 hours; for inhibition at 1 µM: product at 10^-6 M; for inhibition at 0.1 µM: product at 10^-7 M; for inhibition at 0.01 µM: product at 10^-8 M
Method: II. Antiglucocorticoid activity
The technique used derives from the method described by Dausse et Col. in "Molecular Pharmacology", 13, 948-953, (1977) ("the relationship between glucocorticoid structure and effects upon Thymocytes") for the thymocytes of mice.
The thymocytes of suprarenalectomized rats are incubated at 37° C. for 30 hours in a nutritive medium containing 5.10^-8 M of dexamethasone in the presence or not of a product being studied, at different concentrations. Tritiated uridine is added, and the incubation is continued for one hour. The incubates are cooled, and treated with a 5% solution of trichloroacetic acid, then filtered on Whatman GF/A paper, and washed three times with a 5% trichloroacetic acid solution. The radio-activity retained by the filter is determined.
The products of examples 1 to 4 oppose this effect.

[4] = test system: thymocytes of suprarenalectomized rats; conditions: general statement on glucocorticoids, in particular dexamethasone; cited from earlier work

SMILES	Relative bonding affinity (RBA), Glucocorticoid, 4 H [1]	Relative bonding affinity (RBA), Glucocorticoid, 24 H [1]	Relative bonding affinity (RBA), Progestogen, 2 H [2]	Relative bonding affinity (RBA), Progestogen, 24 H [2]	affinity for the glucocorticoid receptor (in words) ([1]; conclusion from RBA)	affinity for the progestogen receptor (in words) ([2]; conclusion from RBA)	inhibition at 1 µM [3]	inhibition at 0.1 µM [3]	inhibition at 0.01 µM [3]	incorporation of tritiated uridine (in words) [4]
CN(C)c1ccc(C2CC3(C)C(CCC34C=CCO4)C3CCC4=CC(=O)CCC4=C23)cc1 (stereo not drawn) [Example 2, (17 R) 11-beta-[4-(dimethylamino)phenyl]-spiro (estra-4,9-dien-17,27-(5H)-furan)-3-one]	142	96	23	222	–	–	32%	18%	0%	–
CN(C)c1ccc(C2CC3(C)C(CCC34CCCO4)C3CCC4=CC(=O)CCC4=C23)cc1 (stereo not shown) [Example 1]	118	48	62	307	–	–	125%	51%	11%	–
C[C@@H]1C[C@H]2[C@@H]3CCC4=CC(=O)C=C[C@]4(C)[C@@]3(F)[C@@H](O)C[C@]2(C)[C@@]1(O)C(=O)CO [dexamethasone]	–	–	–	–	–	–	–	–	–	reduction in the incorporation of tritiated uridine

Continued, in another order:

Relative bonding affinity (RBA), Glucocorticoid, 4 H [1]	Relative bonding affinity (RBA), Glucocorticoid, 24 H [1]	Relative bonding affinity (RBA), Progestogen, 2 H [2]	Relative bonding affinity (RBA), Progestogen, 24 H [2]	affinity for the glucocorticoid receptor (in words) ([1]; conclusion from RBA)	affinity for the progestogen receptor (in words) ([2]; conclusion from RBA)	SMILES	inhibition at 1 µM [3]	inhibition at 0.1 µM [3]	inhibition at 0.01 µM [3]	incorporation of tritiated uridine (in words) [4]
56	41	35	242	–	–	CSc1ccc(C2CC3(C)C(CCC34C=CCO4)C3CCC4=CC(=O)CCC4=C23)cc1 [Example 3, (17R) 11-beta-[4-(methylthio)phenyl]-spiro(estra-4,9-dien-17,2'-(5H)-furan)-3-one]	84%	12%	0%	–
69	39	78	388	very marked affinity	very marked affinity	CSc1ccc(C2CC3(C)C(CCC34CCCO4)C3CCC4=CC(=O)CCC4=C23)cc1 [Example 4, (17R) 4',5'-dihydro-11-beta-[4-(methylthio)phenyl]-spiro(estra-4,9-dien-17,2'-(3H)-furan)-3-one]	80%	21%	0%	–
